Assay results as given in patent US20120076766A1, “Topical drug delivery system with dual carriers” (priority 2010, published 2012).

What was measured:
[1] = system: MRSA; assay: Study III: human field study, diabetic foot lesion with cellulitus; format: in vivo; details: IV, for MRSA, 8 days following admission
Description: In this embodiment, the additional ingredient to hasten a third therapeutic tissue healing effect was added. This embodiment used vitamin D in a small but medically efficacious amount.

[2] = system: HL-60 cells; details: cited from earlier work

Compound | patient response to treatment [1] | amount at which results (desired cellular responses) occurred [2] | subsequent retinoid-induced TGM2 expression ([2]; priming of the cells by pretreatment)
CN[C@H](CC(C)C)C(=O)N[C@H]1C(=O)N[C@@H](CC(N)=O)C(=O)N[C@H]2C(=O)N[C@H]3C(=O)N[C@H](C(=O)N[C@H](C(=O)O)c4cc(O)cc(O)c4-c4cc3ccc4O)[C@H](O)c3ccc(c(Cl)c3)Oc3cc2cc(c3O[C@@H]2O[C@H](CO)[C@@H](O)[C@H](O)[C@H]2O[C@H]2C[C@](C)(N)[C@H](O)[C@H](C)O2)Oc2ccc(cc2Cl)[C@H]1O [vancomycin, Vancomycin] | did not respond |  | 
vitamin D |  | about 100 nM | increases
C[S+](C)[O-] [DMSO, dimethyl sulfoxide] |  | less than 2% | 
